Each structure is given as a SMILES string.

As a reminder, the IC50 is the concentration needed to halve the response being measured. Read a high IC50 as lower potency.

For this assay, the target named is T1, Human KLK1 (Homo sapiens, UniProt P06870).
T1 construct: purchased Callbiochem (Calbiochem)
T1 sequence (P06870 25-262): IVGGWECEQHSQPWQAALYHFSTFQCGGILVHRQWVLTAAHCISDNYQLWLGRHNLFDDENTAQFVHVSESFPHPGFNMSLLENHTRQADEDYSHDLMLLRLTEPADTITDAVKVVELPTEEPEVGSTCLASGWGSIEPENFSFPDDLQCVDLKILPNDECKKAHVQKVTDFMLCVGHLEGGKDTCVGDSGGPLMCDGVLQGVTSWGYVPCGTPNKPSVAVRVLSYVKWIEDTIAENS
The assay can be described thus: Determination of the IC50 for KLK1 (fluorogenic substrate H-DVal-Leu-Arg-AFC). The assay is classed as biochemical. Conditions: 37° C. In a few lines: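 Human KLK1 incubated at 37° C with fluorogenic substrate H-DVal-Leu-Arg-AFC and a range of test compound concentrations. Residual activity taken as initial reaction rate from absorbance change at 410 nm; IC50 derived from these rates.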
`C[C@@H](C(=O)N[C@@H](CC1CCCCC1)C(=O)NCc1ccc(N)nc1)N(C)C` [Example 391, (S)—N-{(S)-1-[(6-Amino-pyridin-3-ylmethyl)-carbamoyl]-2-cyclohexyl-ethyl}-2-dimethylamino-propionamide]: 49.4 nM corresponded to half-maximal inhibition (IC50).
With `CC1CCCC(C)N1CC(=O)N[C@@H](CC1CCCCC1)C(=O)NCc1ccc(N)nc1` (stereo partly drawn) [Example 392, (S)—N-(6-Amino-pyridin-3-ylmethyl)-3-cyclohexyl-2-[2-(2,6-dimethyl-piperidin-1-yl)-acetylamino]-propionamide] the figure was 47.2 nM; with `CC(C)N(CC(=O)N[C@@H](CC1CCCCC1)C(=O)NCc1ccc(N)nc1)C(C)C` [Example 393, (S)—N-(6-Amino-pyridin-3-ylmethyl)-3-cyclohexyl-2-(2-diisopropylamino-acetylamino)-propionamide], 26.9 nM; with `CC(C)N(CC(=O)N[C@@H](CC1CCCC2CCCCC21)C(=O)NCc1ccc(N)nc1)C(C)C` (stereo partly drawn) [Example 394, (S)—N-(6-Amino-pyridin-3-ylmethyl)-3-(decahydro-naphthalen-1-yl)-2-(2-diisopropylamino-acetylamino)-propionamide], 8.4 nM.
The value for `CC(C)N(C)[C@@H](C)C(=O)N[C@@H](CC1CCCC2CCCCC21)C(=O)NCc1ccc(N)nc1` (stereo partly drawn) [Example 395, (S)—N-[(S)-1-[(6-Amino-pyridin-3-ylmethyl)-carbamoyl]-2-(decahydro-naphthalen-1-yl)-ethyl]-2-(isopropyl-methyl-amino)-propionamide] was 0.17 nM; that for `CN1CCC[C@@H]1C(=O)N[C@@H](CC1CCCC2CCCCC21)C(=O)NCc1ccc(N)nc1` (stereo partly drawn) [Example 396, (R)-1-Methyl-pyrrolidine-2-carboxylic acid [(S)-1-[(6-amino-pyridin-3-ylmethyl)-carbamoyl]-2-(decahydro-naphthalen-1-yl)-ethyl]-amide] was 1.4 nM; that for `CN(C)[C@H](Cc1ccccc1)C(=O)N[C@@H](CC1CCCC2CCCCC21)C(=O)NCc1ccc(N)nc1` (stereo partly drawn) [Example 397, (R)—N-[(S)-1-[(6-Amino-pyridin-3-ylmethyl)-carbamoyl]-2-(decahydro-naphthalen-1-yl)-ethyl]-2-dimethylamino-3-phenyl-propionamide] was 44.2 nM.
The value for `CC(C)[C@H](C(=O)N[C@@H](Cc1ccc(Cl)c(Cl)c1)C(=O)NCc1ccc(N)nc1)N(C)C` [Example 399, (R)—N-[(S)-1-[(6-Amino-pyridin-3-ylmethyl)-carbamoyl]-2-(3,4-dichloro-phenyl)-ethyl]-2-dimethylamino-3-methyl-butyramide] was 0.74 nM; that for `CC(C)N(C)[C@@H](C)C(=O)N[C@@H](Cc1ccc(Cl)c(Cl)c1)C(=O)NCc1ccc(N)nc1` [Example 401, (S)—N-[(S)-1-[(6-Amino-pyridin-3-ylmethyl)-carbamoyl]-2-(3,4-dichloro-phenyl)-ethyl]-2-(isopropyl-methyl-amino)-propionamide] was 0.16 nM; that for `C[C@H](C(=O)N[C@@H](Cc1ccc(Cl)c(Cl)c1)C(=O)NCc1ccc(N)nc1)N1CCCCC1` [Example 402, (R)—N-[(S)-1-[(6-Amino-pyridin-3-ylmethyl)-carbamoyl]-2-(3,4-dichloro-phenyl)-ethyl]-2-piperidin-1-yl-propionamide] was 13 nM.
As for `C[C@@H](C(=O)N[C@@H](Cc1ccc(Cl)c(Cl)c1)C(=O)NCc1ccc(N)nc1)N1CCCCC1` [Example 403, (S)—N-[(S)-1-[(6-Amino-pyridin-3-ylmethyl)-carbamoyl]-2-(3,4-dichloro-phenyl)-ethyl]-2-piperidin-1-yl-propionamide], inhibition was half-maximal at 1.1 nM (IC50).
As to `Nc1ccc(CNC(=O)[C@H](Cc2ccc(Cl)c(Cl)c2)NC(=O)CN2CCCCC2)cn1` [Example 404, (S)—N-(6-Amino-pyridin-3-ylmethyl)-3-(3,4-dichloro-phenyl)-2-(2-piperidin-1-yl-acetylamino)-propionamide], the IC50 worked out at 33.4 nM.
With `CCC(C)[C@H](C(=O)N[C@@H](Cc1cccc(Cl)c1)C(=O)NCc1ccc(N)nc1)N(C)C` (stereo partly drawn) [Example 405, (R)-2-Dimethylamino-3-methyl-pentanoic acid [(S)-1-[(6-amino-pyridin-3-ylmethyl)-carbamoyl]-2-(3-chloro-phenyl)-ethyl]-amide] the figure was 7.1 nM; with `CC(C)[C@H](C(=O)N[C@@H](Cc1cccc(Cl)c1)C(=O)NCc1ccc(N)nc1)N(C)C` [Example 406, (R)—N-[(S)-1-[(6-Amino-pyridin-3-ylmethyl)-carbamoyl]-2-(3-chloro-phenyl)-ethyl]-2-dimethylamino-3-methyl-butyramide], 4.7 nM.
The compound `CN(C)C(Cc1ccccc1)C(=O)NC(Cc1cccc(Cl)c1)C(=O)NCc1ccc(N)nc1` [Example 407, (R)—N-[(S)-1-[6-Amino-pyridin-3-ylmethyl)-carbamoyl]-2-(3-chloro-phenyl)-ethyl]-2-dimethylamino-3-phenyl-propionamide] had an IC50 of 17 nM.
With `CCN(C)C(C)C(=O)NC(Cc1cccc(Cl)c1)C(=O)NCc1ccc(N)nc1` [Example 408, (S)—N-[(S)-1-[6-Amino-pyridin-3-ylmethyl)-carbamoyl]-2-(3-chloro-phenyl)-ethyl]-2-(ethyl-methyl-amino)-propionamide] the figure was 4.8 nM.
The value for `CC(C)N(C)C(C)C(=O)NC(Cc1cccc(Cl)c1)C(=O)NCc1ccc(N)nc1` [Example 409, (S)—N-[(S)-1-[6-Amino-pyridin-3-ylmethyl)-carbamoyl]-2-(3-chloro-phenyl)-ethyl]-2-(isopropyl-methyl-amino)-propionamide] was 0.63 nM.
For `CCN(CC)[C@@H](C)C(=O)N[C@@H](Cc1cccc(Cl)c1)C(=O)NCc1ccc(N)nc1` [Example 410, (S)—N-[(S)-1-[(6-Amino-pyridin-3-ylmethyl)-carbamoyl]-2-(3-chloro-phenyl)-ethyl]-2-diethylamino-propionamide], the IC50 was determined as 2.6 nM.
`CC(C(=O)N[C@@H](Cc1cccc(Cl)c1)C(=O)NCc1ccc(N)nc1)N1CCCCC1` (stereo partly drawn) [Example 411, N-[(S)-1-[(6-Amino-pyridin-3-ylmethyl)-carbamoyl]-2-(3-chloro-phenyl)-ethyl]-2-piperidin-1-yl-propionamide]: the midpoint of inhibition, the IC50, lay at 12.7 nM.
The value for `Nc1ccc(CNC(=O)[C@H](Cc2cccc(Cl)c2)NC(=O)CN2CCCCC2)cn1` [Example 412, (S)—N-(6-Amino-pyridin-3-ylmethyl)-3-(3-chloro-phenyl)-2-(2-piperidin-1-yl-acetylamino)-propionamide] was 9.3 nM; that for `CCN(C)[C@@H](C)C(=O)N[C@@H](Cc1cccc(C)c1)C(=O)NCc1ccc(N)nc1` [Example 413, (S)—N-{(S)-1-[(6-Amino-pyridin-3-ylmethyl)-carbamoyl]-2-m-tolyl-ethyl}-2-(ethyl-methyl-amino)-propionamide] was 7.9 nM; that for `Cc1cccc(C[C@H](NC(=O)[C@H](C)N(C)C(C)C)C(=O)NCc2ccc(N)nc2)c1` [Example 414, (S)—N-{(S)-1-[(6-Amino-pyridin-3-ylmethyl)-carbamoyl]-2-m-tolyl-ethyl}-2-(isopropyl-methyl-amino)-propionamide] was 0.77 nM.
With `CCN(CC)[C@@H](C)C(=O)N[C@@H](Cc1cccc(C)c1)C(=O)NCc1ccc(N)nc1` [Example 415, (S)—N-{(S)-1-[(6-Amino-pyridin-3-ylmethyl)-carbamoyl]-2-m-tolyl-ethyl}-2-diethylamino-propionamide] the figure was 5.3 nM.
Turning to `CCN(C)[C@@H](C)C(=O)N[C@@H](Cc1cccc(C(F)(F)F)c1)C(=O)NCc1ccc(N)nc1` [Example 416, (S)—N-[(S)-1-[(6-Amino-pyridin-3-ylmethyl)-carbamoyl]-2-(3-trifluoromethyl-phenyl)-ethyl]-2-(ethyl-methyl-amino)-propionamide], the concentration for half-maximal inhibition (IC50) was 6.2 nM.
The value for `CC(C)N(C)[C@@H](C)C(=O)N[C@@H](Cc1cccc(C(F)(F)F)c1)C(=O)NCc1ccc(N)nc1` [Example 417, (S)—N-[(S)-1-[(6-Amino-pyridin-3-ylmethyl)-carbamoyl]-2-(3-trifluoromethyl-phenyl)-ethyl]-2-(isopropyl-methyl-amino)-propionamide] was 0.83 nM; that for `CCN(CC)[C@@H](C)C(=O)N[C@@H](Cc1cccc(C(F)(F)F)c1)C(=O)NCc1ccc(N)nc1` [Example 418, (S)—N-[(S)-1-[(6-Amino-pyridin-3-ylmethyl)-carbamoyl]-2-(3-trifluoromethyl-phenyl)-ethyl]-2-diethylamino-propionamide] was 2 nM.
With `CC(C(=O)N[C@@H](Cc1cccc(C(F)(F)F)c1)C(=O)NCc1ccc(N)nc1)N1CCCCC1` (stereo partly drawn) [Example 419, N-[(S)-1-[(6-Amino-pyridin-3-ylmethyl)-carbamoyl]-2-(3-trifluoromethyl-phenyl)-ethyl]-2-piperidin-1-yl-propionamide] the figure was 16.3 nM; with `Nc1ccc(CNC(=O)[C@H](Cc2cccc(C(F)(F)F)c2)NC(=O)CN2CCCCC2)cn1` [Example 420, (S)—N-(6-Amino-pyridin-3-ylmethyl)-2-(2-piperidin-1-yl-acetylamino)-3-(3-trifluoromethyl-phenyl)-propionamide], 117 nM; with `C[C@H](C(=O)N[C@@H](Cc1ccc(C(F)(F)F)cc1)C(=O)NCc1ccc(N)nc1)N1CCCCC1` [Example 421, (R)—N-[(S)-1-[(6-Amino-pyridin-3-ylmethyl)-carbamoyl]-2-(4-trifluoromethyl-phenyl)-ethyl]-2-piperidin-1-yl-propionamide], 67.4 nM.
With `C[C@@H](C(=O)N[C@@H](Cc1ccc(C(F)(F)F)cc1)C(=O)NCc1ccc(N)nc1)N1CCCCC1` [Example 422, (S)—N-[(S)-1-[(6-Amino-pyridin-3-ylmethyl)-carbamoyl]-2-(4-trifluoromethyl-phenyl)-ethyl]-2-piperidin-1-yl-propionamide], the IC50 came to 3 nM.
The value for `Nc1ccc(CNC(=O)[C@H](Cc2ccc(C(F)(F)F)cc2)NC(=O)CN2CCCCC2)cn1` [Example 423, (S)—N-(6-Amino-pyridin-3-ylmethyl)-2-(2-piperidin-1-yl-acetylamino)-3-(4-trifluoromethyl-phenyl)-propionamide] was 129 nM.

For the origin of these results see patent US20100076015A1, “Aminopyridine Derivatives” (VANTIA LIMITED, priority 2008, published 2010).
